From ChEMBL document CHEMBL1649174, “Human immunodeficiency virus type 1 isolates with the reverse transcriptase (RT) mutation Q145M retain nucleoside and nonnucleoside RT inhibitor susceptibility” (2009)

Assays:
Format in all cases: functional
[1] = tested on: Human immunodeficiency virus 1; test: Antiviral activity against Human immunodeficiency virus 1 clone pNL4-3-Q145M harboring K102Q, Q145M, S162C, K277R, I293V mutation in reverse transcriptase by phenosense assay relative to wild type
[2] = tested on: Human immunodeficiency virus 1; test: Antiviral activity against Human immunodeficiency virus 1 clone 38086 harboring K49R, V60I, I135V, Q145M, Q174H, G196E, Q207E, R211K, V245K mutation in reverse transcriptase by phenosense assay relative to wild type
[3] = tested on: Human immunodeficiency virus 1; test: Antiviral activity against Human immunodeficiency virus 1 clone Q9016 harboring K122E, Q145M, I202V, F214L mutation in reverse transcriptase by phenosense assay relative to wild type
[4] = tested on: Human immunodeficiency virus 1; test: Antiviral activity against Human immunodeficiency virus 1 clone 14682 harboring 122E, 135V, Q145V, 200A mutation in reverse transcriptase by phenosense assay relative to wild type

Row | SMILES | fold change (FC) [1] | fold change (FC) [2] | fold change (FC) [3] | fold change (FC) [4]
1 | O=C1Nc2ccc(Cl)cc2[C@@](C#CC2CC2)(C(F)(F)F)O1 [EFAVIRENZ] | 0.9 | 1 | 1.2 | 1.3
2 | O=c1[nH]cnc2c1ncn2[C@H]1CC[C@@H](CO)O1 [DIDANOSINE] | 1.1 | 1.5 | 0.9 | 1
3 | Nc1nc(NC2CC2)c2ncn([C@H]3C=C[C@@H](CO)C3)c2n1 [ABACAVIR] | 1.1 | 0.9 | 1.2 | 1.1
4 | Cc1cn([C@H]2C[C@H](N=[N+]=[N-])[C@@H](CO)O2)c(=O)[nH]c1=O [ZIDOVUDINE] | 0.7 | 0.9 | 1.1 | 0.8
5 | Cc1cn([C@H]2C=C[C@@H](CO)O2)c(=O)[nH]c1=O [STAVUDINE] | 0.9 | 1.1 | 1.1 | 0.9
6 | CC(C)Nc1cccnc1N1CCN(C(=O)c2cc3cc(NS(C)(=O)=O)ccc3[nH]2)CC1 [DELAVIRDINE] | 0.6 | 0.4 | 0.7 | 0.9
7 | C[C@H](Cn1cnc2c(N)ncnc21)OCP(=O)(O)O [TENOFOVIR ANHYDROUS] | 0.9 | 0.9 | 1.5 | 0.9
8 | Nc1nc(=O)n([C@@H]2CS[C@H](CO)O2)cc1F [EMTRICITABINE] | 0.9 | 1.2 | 1.1 | 0.5
9 | Cc1ccnc2c1NC(=O)c1cccnc1N2C1CC1 [NEVIRAPINE] | 1.3 | 1.1 | 0.7 | 0.5
